PubChem BioAssay AID248 (DTP/NCI, 2004)
Inconclusive results and toxic doses are left out. Cut-off read from the data, not from the text of the source: active = T/C of 150% or more; inactive = T/C below 125%.

Test system: L1210 leukemia ip in BDF1 mice, survival T/C
Assay: NCI In Vivo Anticancer Drug Screen. Data for tumor model L1210 Leukemia (intraperitoneal) in B6D2F1 (BDF1) mice
Conditions: endpoint: mean survival time, vehicle: saline, higher = longer survival
In short: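 Read-out is survival time, reported as the treated-group measurement over the vehicle-control measurement.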

Measured: T/C

C1OC1C1CO1 (stereo not given)
inactive: dose: 6.25 mg/kg/injection, schedule: Q01DX009 (ip) 92 % of control | dose: 10.0 mg/kg/injection, schedule: Q01DX001 (ip) 106 % of control | dose: 12.5 mg/kg/injection, schedule: Q01DX009 (ip) 104 % of control | dose: 12.5 mg/kg/injection, schedule: Q04DX003 (ip) 110 % of control | dose: 20.0 mg/kg/injection, schedule: Q01DX001 (ip) 103 % of control | dose: 25.0 mg/kg/injection, schedule: Q01DX009 (ip) 114 % of control | dose: 25.0 mg/kg/injection, schedule: Q04DX003 (ip) 119 % of control | dose: 40.0 mg/kg/injection, schedule: Q01DX001 (ip) 114 % of control | dose: 44.0 mg/kg/injection, schedule: Q01DX001 (ip) 105 % of control | dose: 50.0 mg/kg/injection, schedule: Q04DX003 (ip) 105 % of control
